Patent US12122833B2, “Combination therapies of HDAC inhibitors and PD-1 inhibitors” (HUYABIO International, LLC, priority 2016, dated 2024)

Tests used:
[1] = oral administration; cited from earlier work
HDAC 8 = molecular target: T1, HDAC 8 (Homo sapiens, UniProt Q9BY41); conditions: cited from earlier work
T1 sequence (Q9BY41 1-377): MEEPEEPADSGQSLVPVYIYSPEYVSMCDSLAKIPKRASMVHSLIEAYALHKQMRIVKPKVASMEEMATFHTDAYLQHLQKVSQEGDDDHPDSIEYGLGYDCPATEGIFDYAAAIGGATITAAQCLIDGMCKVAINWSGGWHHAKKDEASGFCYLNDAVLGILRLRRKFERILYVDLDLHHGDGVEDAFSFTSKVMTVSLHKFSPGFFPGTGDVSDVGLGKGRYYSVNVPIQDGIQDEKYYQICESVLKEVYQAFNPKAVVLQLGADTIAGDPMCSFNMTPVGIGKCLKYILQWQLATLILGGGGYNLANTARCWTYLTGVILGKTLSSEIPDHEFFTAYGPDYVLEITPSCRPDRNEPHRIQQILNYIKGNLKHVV

HDAC 2 = HDAC 2 (Homo sapiens, UniProt Q92769); conditions: reported by Ning et al.; cited from earlier work
HDAC 10 = molecular target: T2, HDAC 10 (Homo sapiens, UniProt Q969S8); conditions: reported by Ning et al.; cited from earlier work
T2 sequence (Q969S8 1-669): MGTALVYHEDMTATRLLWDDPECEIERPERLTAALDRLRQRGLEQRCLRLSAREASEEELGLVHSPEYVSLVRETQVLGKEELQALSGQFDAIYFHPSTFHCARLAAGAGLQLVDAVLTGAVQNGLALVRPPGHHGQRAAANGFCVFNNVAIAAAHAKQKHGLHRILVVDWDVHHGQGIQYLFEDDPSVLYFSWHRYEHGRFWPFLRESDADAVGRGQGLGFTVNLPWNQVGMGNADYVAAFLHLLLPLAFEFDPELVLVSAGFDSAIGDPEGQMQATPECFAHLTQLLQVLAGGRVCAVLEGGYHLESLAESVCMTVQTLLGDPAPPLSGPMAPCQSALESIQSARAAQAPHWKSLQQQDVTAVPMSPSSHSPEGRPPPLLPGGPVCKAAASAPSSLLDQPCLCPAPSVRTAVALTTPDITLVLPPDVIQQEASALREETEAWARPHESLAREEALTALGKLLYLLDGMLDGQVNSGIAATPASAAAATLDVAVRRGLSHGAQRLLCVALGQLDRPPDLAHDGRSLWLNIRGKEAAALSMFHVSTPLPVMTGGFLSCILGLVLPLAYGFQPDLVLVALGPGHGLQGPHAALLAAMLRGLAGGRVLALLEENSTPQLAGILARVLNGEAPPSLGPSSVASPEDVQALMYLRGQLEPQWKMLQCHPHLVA

[2] = tested on: MC38 murine colon carcinoma cells; experiment: Example 1: tumor growth delay, MC38 murine colon carcinoma in C57BL/6 mice; type: in vivo, mouse; conditions: for Median TTE: endpoint 1000 mm^3 or Day 47, n=10; for % TGD: vs vehicle
Procedure: In the present example, HBI-8000 was tested as monotherapy and in combination with anti-PD-1 at 5 mg/kg. The experiment included a vehicle-treated group, and a PD-1 inhibitor antibody monotherapy group, which served as the control groups for analysis of efficacy. Tumors were measured twice per week until the study was ended on Day 47. Each animal was euthanized when its tumor attained the endpoint tumor volume of 1000 mm^3 or on the final day of the study, whichever came first, and the time to endpoint (TTE) for each mouse was calculated. Treatment response was determined from an analysis of percent tumor growth delay (% TGD), defined as the percent increase in the median time to endpoint (TTE) for treated versus control mice; and by log rank significance of differences in survival among groups and regression responses.
Mice: Female C57BL/6 mice (Charles River Laboratories) were eight weeks old, with a body weight (BW) range of 15.4 to 22.0 grams on Day 1 of the study. The animals were fed ad libitum water (reverse osmosis, 1 ppm Cl), and NIH 31 Modified and Irradiated Lab Diet® consisting of 18.0% crude protein, 5.0% crude fat, and 5.0% crude fiber. The mice were housed on irradiated Enrich-o'Cobs™ Laboratory Animal Bedding in static microisolators on a 12-hour light cycle at 20-22° C. (68-72° F.) and 40-60% humidity.
Tumor Cells: MC38 murine colon carcinoma cells were maintained in Dulbecco's Modified Eagle Medium (DMEM) supplemented with 10% fetal bovine serum and 2 mM glutamine, 100 units/mL penicillin G sodium, […] streptomycin sulfate, and 25 μg/mL gentamicin. Cell cultures were maintained in tissue culture flasks in a humidified incubator at 37° C., in an atmosphere of 5% CO2 and 95% air.
Tumor Implantation: Cells were harvested during exponential growth, and resuspended in cold DMEM. Each mouse was inoculated subcutaneously in the right flank with 1×10^6 cells (0.1 mL of cell suspension). Tumors were calipered in two dimensions to monitor growth as their mean volume approached the desired 100-150 mm^3 range. Tumor burden was calculated using the formula:
[formula] where w=width and l=length, in mm, of the tumor. Tumor weight may be estimated with the assumption that 1 mg is equivalent to 1 mm^3 of tumor volume. Fourteen days after tumor implantation, which was designated as Day 1 of the study, animals with individual tumor volumes from 75 to 221 mm^3 were sorted into eleven groups (n=10/group) with group mean tumor volume of 130-133 mm^3. […]
Tumor Growth Delay: Tumors were measured using calipers twice per week, and each animal was euthanized when its tumor reached a volume of 1000 mm^3 or at the end of the study (D47), whichever came first. […] The time to endpoint (TTE) for analysis was calculated for each mouse by the following equation: […]

[3] = HBI-8000 20 mg/kg p.o. qd×21, alone or plus anti-PD-1 5 mg/kg i.p. biwk×3
[4] = HBI-8000 50 mg/kg p.o. qd×21, alone or plus anti-PD-1 5 mg/kg i.p. biwk×3

Sequence of HDAC 2 (Q92769 whole entry): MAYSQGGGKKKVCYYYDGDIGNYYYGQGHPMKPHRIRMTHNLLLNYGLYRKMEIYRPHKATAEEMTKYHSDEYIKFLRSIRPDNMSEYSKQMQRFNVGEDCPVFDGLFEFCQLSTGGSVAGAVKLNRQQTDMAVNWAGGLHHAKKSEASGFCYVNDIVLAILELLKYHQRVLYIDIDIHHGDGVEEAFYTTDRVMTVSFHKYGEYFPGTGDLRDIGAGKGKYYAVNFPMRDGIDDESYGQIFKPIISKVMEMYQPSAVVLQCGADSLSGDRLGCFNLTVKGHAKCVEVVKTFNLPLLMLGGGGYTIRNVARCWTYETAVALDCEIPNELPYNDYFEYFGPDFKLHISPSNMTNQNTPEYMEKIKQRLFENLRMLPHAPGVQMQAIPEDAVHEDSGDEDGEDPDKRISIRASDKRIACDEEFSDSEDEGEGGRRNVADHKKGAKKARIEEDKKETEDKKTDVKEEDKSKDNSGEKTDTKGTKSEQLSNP

## Nc1cc(F)ccc1NC(=O)c1ccc(CNC(=O)/C=C/c2cccnc2)cc1 [HBI-8000, N-(2-amino-4-fluorophenyl)-4-[[[(2E)-1-oxo-3-(3-pyridinyl)-2-propen-1-yl]amino]methyl]benz amide]
[1]
  t1/2: about 17 hours
HDAC 8
  activity at HDAC 8: has activity
HDAC 8; reported by Ning et al.
  activity at HDAC 8 compared with Entinostat: more active than Entinostat
HDAC 2
  activity at HDAC 2 compared with Entinostat: more active than Entinostat
  inhibition of HDAC 2: low nanomolar concentrations
HDAC 10
  activity at HDAC 10 compared with Entinostat: more active than Entinostat
  inhibition of HDAC 10: low nanomolar concentrations
[2]; [3]
  Median TTE: 18.9 days
  % TGD: −8%
[2]; [4]
  Median TTE: 22.8 days
  % TGD: 11%
